Here are results for eleven compounds from PubChem BioAssay (NCI).

SMILES strings stand for the structures.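 Five concentrations, 48 hours, 96-well plates. GI50: concentration for 50% inhibition of growth. Definition used: TGI = concentration required for complete inhibition of growth.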

What all share (assay): growth of human tumour cells (NCI), 48 h
For experiment [1], the system named is PC-3 prostate.
In experiment [2] the test system is HOP-62 NSCLC.
The test system of experiment [3] is KM12 colon.
Experiment [4] concerns TK-10 renal.
The subject of experiment [5] is LOX IMVI melanoma.
In experiment [6] the test system is HCT-116 colon.
Experiment [7] has as its system SK-OV-3 ovarian.

`C[C@H](CCOc1cccc(CC(=O)O)c1)N(Cc1cccc(C(F)(F)F)c1Cl)CC(c1ccccc1)c1ccccc1`: the GI50 in experiment [1] is 4.64 µM; in experiment [2], 6.26 µM; in experiment [3] it was 4.1 µM; in experiment [4], 10.3 µM; in experiment [5], 5.13 µM; in experiment [6], 3.68 µM. Besides, the TGI in experiment [1] was found to be 17.4 µM; in experiment [2] it was 26.4 µM; in experiment [3], 15.1 µM; in experiment [4], 23.1 µM; in experiment [5], 18.5 µM; in experiment [6] it was 13.6 µM.

For `CCOC(=O)c1c(C)c2c(n1Cc1ccccc1)CSCC2=O`, the GI50 in experiment [1] is 13.6 µM; in experiment [2] it was 22.9 µM; in experiment [3], 15 µM; in experiment [4], 27.3 µM; in experiment [5] it was 14.8 µM; in experiment [7], 23.8 µM. The GI50 in experiment [6] was 11.8 µM. Also, the TGI in experiment [1] was 68.1 µM; in experiment [2], 63.5 µM; in experiment [3] it was 37.9 µM; in experiment [4], 81.4 µM; in experiment [5] it was 50.9 µM; in experiment [7], over 100 µM. In addition, the TGI in experiment [6] was found to be 31.9 µM.

On to `COc1cc2c(cc1OCCCN1CCN(CCCOc3cc4c(cc3OC)C(=O)N3CC(F)(F)C[C@H]3C=N4)CC1)N=C[C@@H]1CC(F)(F)CN1C2=O`, for which the GI50 in experiment [1] is 3.06 µM; in experiment [2] it was 3.17 µM; in experiment [3] it was 4.1 µM; in experiment [4], 4.38 µM; in experiment [5], 1.89 µM; in experiment [7] it was 8.64 µM. Also, in experiment [6], the GI50 was 3.59 µM. Further, the TGI in experiment [1] was 9.74 µM; in experiment [2], 6.07 µM; in experiment [3], 17.5 µM; in experiment [4] it was 12.9 µM; in experiment [5], 4.83 µM; in experiment [7], over 100 µM. The compound also displayed a TGI in experiment [6] of 22.4 µM.

Take `CCSc1nc(N=Cc2ccccc2O)c2cn[nH]c2n1`: the GI50 is 28 µM in experiment [1]; 54.5 µM in experiment [2]; 13.2 µM in experiment [3]; 9.67 µM in experiment [4]; 30.1 µM in experiment [5]; over 100 µM in experiment [7]. Besides, the GI50 in experiment [6] was 25.7 µM. Moreover, the TGI is 72.7 µM in experiment [1]; over 100 µM in experiment [2]; 37 µM in experiment [3]; 36.6 µM in experiment [4]; over 100 µM in experiment [5]; over 100 µM in experiment [7]. In addition, in experiment [6], the TGI was over 100 µM.

Turning to `NNc1ncnc2nc[nH]c12`, the GI50 was 6.07 µM in experiment [1]; 2.25 µM in experiment [2]; 3.56 µM in experiment [3]; 2.94 µM in experiment [4]; 2.89 µM in experiment [5]; 2.63 µM in experiment [7]. The GI50 in experiment [6] was 2.25 µM. Further, the TGI in experiment [1] is over 100 µM; in experiment [2] it was 10.5 µM; in experiment [3], 44.5 µM; in experiment [4], over 100 µM; in experiment [5] it was over 100 µM; in experiment [7], 28.4 µM. For the same compound, the TGI in experiment [6] came out at 15.9 µM.

`CCCCCCCCSC1=C(Cl)C(=O)C(OC)=C(OC)C1=O`: the TGI in experiment [1] is 31.9 µM; in experiment [2], 51.7 µM; in experiment [3] it was 37.7 µM; in experiment [4], 28.5 µM; in experiment [5], 24 µM; in experiment [7] it was over 100 µM. In experiment [6], this compound showed a TGI of 19.8 µM.

As to `C=CC12CCN(CC1)C(C(O)c1ccnc3ccc(OC)cc13)C2` (centres undefined), the GI50 is over 100 µM in experiment [1]; over 100 µM in experiment [2]; over 100 µM in experiment [3]; over 100 µM in experiment [4]; 15.4 µM in experiment [5]; over 100 µM in experiment [7]. In experiment [6], the GI50 is over 100 µM. Besides, the TGI in experiment [1], in experiment [2], in experiment [3], in experiment [4], in experiment [5] and in experiment [7] was over 100 µM in each case. This compound displayed a TGI in experiment [6] of over 100 µM.

As for `O=c1[nH]c(O)c(C=Nc2ccc(-c3nc4ccccc4o3)cc2)c(=O)[nH]1`, the GI50 is over 100 µM in experiment [1]; over 100 µM in experiment [2]; 31.3 µM in experiment [3]; 40.6 µM in experiment [4]; 25.3 µM in experiment [5]; over 100 µM in experiment [7]. Moreover, the GI50 in experiment [6] was 93.6 µM. Besides, the TGI in experiment [1] was over 100 µM; in experiment [2], over 100 µM; in experiment [3] it was over 100 µM; in experiment [4], over 100 µM; in experiment [5], 58.9 µM; in experiment [7], over 100 µM. Also, the TGI in experiment [6] is over 100 µM.

With `O=c1[nH]c(-c2cccc(F)c2)cc2cc(F)ccc12`, the GI50 in experiment [1] is 0.391 µM; in experiment [2] it was 0.495 µM; in experiment [3], 0.307 µM; in experiment [4], over 50 µM; in experiment [5], 0.613 µM; in experiment [7], 0.616 µM. For the same compound, the GI50 in experiment [6] is 0.195 µM. Besides, the TGI in experiment [1], in experiment [2], in experiment [3], in experiment [4], in experiment [5] and in experiment [7] was over 100 µM throughout. The TGI in experiment [6] was over 100 µM.

For `O=c1cccc(C#CC#C[C@@H]2O[C@H]2CO)o1`, the GI50 in experiment [1] is 1.82 µM; in experiment [2], 1.55 µM; in experiment [3], 2.06 µM; in experiment [4], 1.47 µM; in experiment [5] it was 0.797 µM; in experiment [7] it was 4.05 µM. The GI50 in experiment [6] is 0.274 µM. Moreover, the TGI in experiment [1] stood at 4.1 µM; in experiment [2], 3.03 µM; in experiment [3], 7.47 µM; in experiment [4] it was 3.38 µM; in experiment [5], 1.73 µM; in experiment [7] it was 12.6 µM.

`C=C(CN(C)Cc1ccccc1)c1ccc(NC(=O)c2ccc(C(=C)CN(C)Cc3ccccc3)cc2)cc1`: the GI50 in experiment [1] was 11 µM; in experiment [2], 18.8 µM; in experiment [3], over 100 µM; in experiment [4], over 100 µM; in experiment [5], 94.8 µM; in experiment [7], 33.7 µM. The GI50 in experiment [6] is 31.7 µM. Also, the TGI in experiment [1] was 23 µM; in experiment [2], 36.9 µM; in experiment [3], over 100 µM; in experiment [4], over 100 µM; in experiment [5] it was over 100 µM; in experiment [7] it was over 100 µM. Moreover, in experiment [6], the TGI is over 100 µM.
